Source: patent US11324821B2, “Triterpene saponin analogues” (ADJUVANCE TECHNOLOGIES, INC., priority 2017, dated 2022)
Several values for one entry are separate records, joined by “and”; a condition that tells them apart may be missing. Equal entries are not always repeated.

Key:
Type in all cases: in vivo, mice
[1] = test system: GB208_4; assay: INFγ ELISPOT, total splenocytes, responses to GB208_4; details: re-stimulation GB208_4 10 μg/ml, per mouse
Description: (§1) The impact of synthetic TQL-1055 (Compound I-4) on CD4 and CD8 T cell responses to peptides was tested in mice as a single adjuvant and in combination with Genocea Biosciences GEN-AS2 adjuvant and sGenocea Biosciences GEN-AS3 adjuvant according to the plan in the table below. The GEN-AS2 and GEN-AS3 adjuvant are TLR agonist-based adjuvant systems. Specific peptides tested include Genocea synthetic long peptides (SLPs) GB208_1, GB208_4, GB208_8, which are tumor-specific T cell antigens identified by neo-antigen screening, however the results are expected to replicate to other types of peptides. Combinations including an adjuvant composition with the SLPs were administered to mice via s.c. scruff according to the plan below. Injections were administered to groups according to the plan in the table below. Responses in mice were measured seven (7) or fourteen (14) days after the final injection.
(§2) T cell responses were measured by the following ELISPOT analyses: • 1. Total splenocytes: • a. Combined responses to GB208_1, _4, _8; re-stimulation with overlapping peptides (OLPs) at 10 μg/ml; • b. Responses to GB208_1; re-stimulation GB208_1 at 10 μg/ml; • c. Responses to GB208_4; re-stimulation GB208_4 at 10 μg/ml; • d. Responses to GB208_8; re-stimulation GB208_8 at 10 μg/ml; • 2. CD4 enriched: combined responses to GB208_1, _4, _8; re-stimulation with overlapping peptides at 20 μg/ml; and • 3. CD8 enriched: combined responses to GB208_1, _4, _8; re-stimulation with overlapping peptides at 20 μg/ml. Specific resulting data is shown in FIGS. 2-8 and in the tables below.
(§3) The values in Tables 3a-f results are spot forming units per 800,000 cells. A value of 2000 was used if spots exceeded the upper limit of detection. All groups had n=5, except groups 1, 2, and 3, which had four mice in each group.

[2] = test system: GB208_1; assay: INFγ ELISPOT, total splenocytes, responses to GB208_1; details: re-stimulation GB208_1 10 μg/ml, per mouse
Description: as §1, §2, §3

[3] = test system: CD4 enriched; assay: ELISPOT, CD4 enriched cells, combined responses to GB208_1, _4, _8; details: re-stimulation overlapping peptides 20 μg/ml
Description: as §1, §2
(§4) The values in Tables 3g-h results are spot forming units per 500,000 cells. A value of 2000 was used if spots exceeded the upper limit of detection.

[4] = test system: CD8 enriched; assay: ELISPOT, CD8 enriched cells, combined responses to GB208_1, _4, _8; details: re-stimulation overlapping peptides 20 μg/ml
Description: as §1, §2, §4

[5] = test system: GB208_1, _4, _8; assay: Endpoint titer, total IgG response to GB208_1, _4, _8; details: FIG. 7, total IgG endpoint titer
Description: FIG. 7 depicts data showing enpoint titer data for total IgG response to GB208_1, _4, _8 for each group tested in Example 2.
as §1

[6] = test system: GB208_1, _4, _8; assay: INFγ ELISPOT, total splenocytes, combined responses to GB208_1, _4, _8 (overlapping peptides); details: re-stimulation OLPs 10 μg/ml, per mouse
Description: as §1, §2, §3

[7] = test system: GB208_8; assay: INFγ ELISPOT, total splenocytes, responses to GB208_8; details: re-stimulation GB208_8 10 μg/ml, per mouse
Description: as §1, §2, §3

[8] = Group 2: no antigen, 50 μg TQL-1055, days 0, 7
[9] = Group 5: 150 μg SLPs + 10 μg TQL-1055, days 0, 7
[10] = Group 6: 150 μg SLPs + 25 μg TQL-1055, days 0, 7
[11] = Group 7: 150 μg SLPs + 50 μg TQL-1055, days 0, 7
[12] = Group 8: 150 μg SLPs + 100 μg TQL-1055, days 0, 7
[13] = Group 11: 150 μg SLPs + 50 μg TQL-1055, days 0, 14

**Q.** Which “SLP4-specific INFγ responses in splenocytes” value (from here on “SLP4-specific INFγ responses”) [1, 8] does the source give for `CC1O[C@@H](OC2C(O)[C@@H](NC(=O)CCCCCCCCCCC(=O)O)C(CO)O[C@H]2OC(=O)[C@]23CCC(C)(C)CC2C2=CCC4C5(C)CC[C@H](O)C(C)(C=O)C5CCC4(C)[C@]2(C)CC3O)C(O)C(O)[C@H]1O[C@@H]1OC[C@@H](O)C(O)C1O` (stereo partly shown) [TQL-1055] here?
**A.** Its value is 0 spot forming units per 800,000 cells.

**Q.** And the “SLP4-specific INFγ responses” value [1, 9]?
**A.** Its value is 31 spot forming units per 800,000 cells and 135 spot forming units per 800,000 cells and 21 spot forming units per 800,000 cells and 183 spot forming units per 800,000 cells and 72 spot forming units per 800,000 cells.

**Q.** And the “SLP4-specific INFγ responses” value [1, 10]?
**A.** Its value is 102 spot forming units per 800,000 cells and 70 spot forming units per 800,000 cells and 431 spot forming units per 800,000 cells and 22 spot forming units per 800,000 cells and 169 spot forming units per 800,000 cells.

**Q.** And the “SLP4-specific INFγ responses” value [1, 11]?
**A.** Its value is 68 spot forming units per 800,000 cells and 23 spot forming units per 800,000 cells and 142 spot forming units per 800,000 cells and 93 spot forming units per 800,000 cells and 42 spot forming units per 800,000 cells.

**Q.** And the “SLP4-specific INFγ responses” value [1, 12]?
**A.** Its value is 30 spot forming units per 800,000 cells and 37 spot forming units per 800,000 cells and 19 spot forming units per 800,000 cells and 76 spot forming units per 800,000 cells and 78 spot forming units per 800,000 cells.

**Q.** What about the “SLP4-specific INFγ responses” value [1, 13] of the same compound?
**A.** The value was 43 spot forming units per 800,000 cells and 96 spot forming units per 800,000 cells and 31 spot forming units per 800,000 cells and 258 spot forming units per 800,000 cells and 79 spot forming units per 800,000 cells.

**Q.** And the “SLP1-specific INFγ responses in splenocytes” value (shortened to “SLP1-specific INFγ responses”) [2, 8]?
**A.** The value was 0 spot forming units per 800,000 cells.

**Q.** And the “SLP1-specific INFγ responses” value [2, 9]?
**A.** Its value is 0 spot forming units per 800,000 cells (2×) and 4 spot forming units per 800,000 cells and 11 spot forming units per 800,000 cells and 5 spot forming units per 800,000 cells.

**Q.** And the “SLP1-specific INFγ responses” value [2, 10]?
**A.** Its value is 3 spot forming units per 800,000 cells and 4 spot forming units per 800,000 cells and 25 spot forming units per 800,000 cells and 12 spot forming units per 800,000 cells and 30 spot forming units per 800,000 cells.

**Q.** What about the “SLP1-specific INFγ responses” value [2, 11] of the same compound?
**A.** The value was 3 spot forming units per 800,000 cells and 13 spot forming units per 800,000 cells and 4 spot forming units per 800,000 cells and 18 spot forming units per 800,000 cells and 25 spot forming units per 800,000 cells.

**Q.** What about the “SLP1-specific INFγ responses” value [2, 12] of the same compound?
**A.** Its value is 0 spot forming units per 800,000 cells and 5 spot forming units per 800,000 cells and 7 spot forming units per 800,000 cells and 29 spot forming units per 800,000 cells and 3 spot forming units per 800,000 cells.

**Q.** What about the “SLP1-specific INFγ responses” value [2, 13] of the same compound?
**A.** The value was 3 spot forming units per 800,000 cells (2×) and 20 spot forming units per 800,000 cells and 94 spot forming units per 800,000 cells and 4 spot forming units per 800,000 cells.

**Q.** And the “CD4 Responses, OLP pool SLP 1, 4, 8” value [3, 8]?
**A.** The value was 0 spot forming units per 500,000 cells.

**Q.** What about the “CD4 Responses, OLP pool SLP 1, 4, 8” value [3, 9] of the same compound?
**A.** Its value is 48.5 spot forming units per 500,000 cells.

**Q.** And the “CD4 Responses, OLP pool SLP 1, 4, 8” value [3, 10]?
**A.** Its value is 149.5 spot forming units per 500,000 cells.

**Q.** And the “CD4 Responses, OLP pool SLP 1, 4, 8” value [3, 11]?
**A.** Its value is 88.5 spot forming units per 500,000 cells.

**Q.** And the “CD4 Responses, OLP pool SLP 1, 4, 8” value [3, 12]?
**A.** Its value is 28.5 spot forming units per 500,000 cells.

**Q.** What about the “CD4 Responses, OLP pool SLP 1, 4, 8” value [3, 13] of the same compound?
**A.** Its value is 79 spot forming units per 500,000 cells.

**Q.** And the “CD8 Responses, OLP pool SLP 1, 4, 8” value [4, 8]?
**A.** The value was 2.5 spot forming units per 500,000 cells.

**Q.** And the “CD8 Responses, OLP pool SLP 1, 4, 8” value [4, 9]?
**A.** Its value is 6.5 spot forming units per 500,000 cells.

**Q.** And the “CD8 Responses, OLP pool SLP 1, 4, 8” value [4, 10]?
**A.** Its value is 5 spot forming units per 500,000 cells.

**Q.** What about the “CD8 Responses, OLP pool SLP 1, 4, 8” value [4, 11] of the same compound?
**A.** The value was 5.5 spot forming units per 500,000 cells.

**Q.** And the “CD8 Responses, OLP pool SLP 1, 4, 8” value [4, 12]?
**A.** Its value is 6.5 spot forming units per 500,000 cells.

**Q.** And the “CD8 Responses, OLP pool SLP 1, 4, 8” value [4, 13]?
**A.** The value was 3.5 spot forming units per 500,000 cells.

**Q.** What about the “antibody response for antibodies specific to GB208_1, _4, and _8 compared with GEN-AS3” value [5] of the same compound?
**A.** The value was “in line with or better than GEN-AS3”.

**Q.** What about the “INFγ responses in splenocytes to SLPs 1, 4, 8” value (“INFγ responses … 4, 8” below) [6, 8] of the same compound?
**A.** The value was 0.5 spot forming units per 800,000 cells (2×) and 2.5 spot forming units per 800,000 cells and 2 spot forming units per 800,000 cells.

**Q.** And the “INFγ responses … 4, 8” value [6, 9]?
**A.** Its value is 12.5 spot forming units per 800,000 cells and 20 spot forming units per 800,000 cells and 11 spot forming units per 800,000 cells and 115 spot forming units per 800,000 cells and 53 spot forming units per 800,000 cells.

**Q.** What about the “INFγ responses … 4, 8” value [6, 10] of the same compound?
**A.** The value was 104.5 spot forming units per 800,000 cells and 39 spot forming units per 800,000 cells and 338 spot forming units per 800,000 cells and 12.5 spot forming units per 800,000 cells and 167.5 spot forming units per 800,000 cells.

**Q.** And the “INFγ responses … 4, 8” value [6, 11]?
**A.** The value was 56 spot forming units per 800,000 cells and 32 spot forming units per 800,000 cells and 138 spot forming units per 800,000 cells and 139 spot forming units per 800,000 cells and 59.5 spot forming units per 800,000 cells.

**Q.** And the “INFγ responses … 4, 8” value [6, 12]?
**A.** Its value is 42.5 spot forming units per 800,000 cells and 22 spot forming units per 800,000 cells and 17 spot forming units per 800,000 cells and 74.5 spot forming units per 800,000 cells and 73 spot forming units per 800,000 cells.

**Q.** What about the “INFγ responses … 4, 8” value [6, 13] of the same compound?
**A.** Its value is 70 spot forming units per 800,000 cells and 85 spot forming units per 800,000 cells and 32.5 spot forming units per 800,000 cells and 319.5 spot forming units per 800,000 cells and 112 spot forming units per 800,000 cells.

**Q.** And the “SLP8-specific INFγ responses in splenocytes” value (from here on “SLP8-specific INFγ responses”) [7, 8]?
**A.** Its value is 0 spot forming units per 800,000 cells (3×) and 2 spot forming units per 800,000 cells.

**Q.** And the “SLP8-specific INFγ responses” value [7, 9]?
**A.** The value was 0 spot forming units per 800,000 cells (2×) and 13 spot forming units per 800,000 cells and 15 spot forming units per 800,000 cells and 16 spot forming units per 800,000 cells.

**Q.** And the “SLP8-specific INFγ responses” value [7, 10]?
**A.** The value was 21 spot forming units per 800,000 cells (2×) and 5 spot forming units per 800,000 cells and 53 spot forming units per 800,000 cells and 3 spot forming units per 800,000 cells.

**Q.** What about the “SLP8-specific INFγ responses” value [7, 11] of the same compound?
**A.** The value was 29 spot forming units per 800,000 cells and 5 spot forming units per 800,000 cells and 55 spot forming units per 800,000 cells and 286 spot forming units per 800,000 cells and 20 spot forming units per 800,000 cells.

**Q.** And the “SLP8-specific INFγ responses” value [7, 12]?
**A.** Its value is 15 spot forming units per 800,000 cells and 0 spot forming units per 800,000 cells and 2 spot forming units per 800,000 cells and 29 spot forming units per 800,000 cells and 4 spot forming units per 800,000 cells.

**Q.** What about the “SLP8-specific INFγ responses” value [7, 13] of the same compound?
**A.** Its value is 59 spot forming units per 800,000 cells and 33 spot forming units per 800,000 cells and 93 spot forming units per 800,000 cells and 164 spot forming units per 800,000 cells and 136 spot forming units per 800,000 cells.
